Laboratory results published in patent publication EP0007672A1, “Isocyanoalkenes, process and useful intermediates for their preparation, pharmaceutical and fungicidal preparations containing those isocyanoalkenes and the use of the fungicidal preparations in agriculture” (GIST-BROCADES N.V., priority 1978, dated 1980).
≈ marks a conversion by molar mass, not a printed value. Where two headings read alike, the source gives them in different places.

What was measured:
Assay in all cases: MIC (Minimum Inhibitory Concentration)
Type in all cases: cell-based
Trichophyton tonsurans = conditions: read-out: MIC values
Excerpt: (§1) In addition they may be used for combatting plant diseases, in particular as fungicides. A list of MIC (Minimum Inhibitory Concentration) values for a number of microorganisms is listed herebelow. The figures in the column headings refer to the compounds prepared according to the experimental examples in comparison with the spectrum of 1-[2-(2,4-dichlorophenyl)-2-{(2,4-dichlorophenyl)-methoxy} -ethyl7-1H-imidazole (better known under the name of miconazole, c.f. Merck Index 9th Ed. page 6047) or natamycin (pimaricin, c.f. Merck Index 9th Ed. page 7233).

Trichophyton equinum = test system: Trichophyton equinum
Excerpt: as §1

Trichophyton quickeaneum = conditions: read-out: MIC values
Excerpt: as §1

[1] = test system: Streptococcus haemolyticus; conditions: read-out: MIC values
Excerpt: as §1

[2] = test system: Trichophyton mentagrophytus
Excerpt: as §1

Pasteurella multocida = conditions: read-out: MIC values
Excerpt: as §1

Candida albicans = test system: Candida albicans
Excerpt: as §1

Trichophyton violoceum = conditions: read-out: MIC values
Excerpt: as §1

Trichophyton rubrum = test system: Trichophyton rubrum
Excerpt: as §1

Trichophyton verrucosum = test system: Trichophyton verrucosum
Excerpt: as §1

[3] = test system: Trichophyton schoenleinii; conditions: read-out: MIC values
Excerpt: as §1

[4] = read-out: MIC values, Trichophyton equinum 182-76
[5] = read-out: MIC values, Trichophyton equinum 441-51
[6] = read-out: MIC values, Trichophyton mentagrophytus 367-68
[7] = read-out: MIC values, Trichophyton mentagrophytus 421-67
[8] = read-out: MIC values, Trichophyton mentagrophytus A 3252
[9] = read-out: MIC values, Trichophyton mentagrophytus R 177
[10] = read-out: MIC values, Trichophyton mentagrophytus R 178
[11] = read-out: MIC values, Candida albicans A 7
[12] = read-out: MIC values, Candida albicans A 3140
[13] = read-out: MIC values, Candida albicans A 3141
[14] = read-out: MIC values, Candida albicans A 3142
[15] = read-out: MIC values, Candida albicans A 3143
[16] = read-out: MIC values, Candida albicans A 3144
[17] = read-out: MIC values, Candida albicans A 3145
[18] = read-out: MIC values, Candida albicans A 3165
[19] = read-out: MIC values, Candida albicans A 3166
[20] = read-out: MIC values, Candida albicans A 3167
[21] = read-out: MIC values, Candida albicans A 3168
[22] = read-out: MIC values, Candida albicans A 3169
[23] = read-out: MIC values, Candida albicans A 3171
[24] = read-out: MIC values, Candida albicans A 3184
[25] = read-out: MIC values, Candida albicans A 3190
[26] = read-out: MIC values, Candida albicans A 3191
[27] = read-out: MIC values, Candida albicans A 3192
[28] = read-out: MIC values, Candida albicans A 3194
[29] = read-out: MIC values, Candida albicans A 3196
[30] = read-out: MIC values, Trichophyton rubrum 218-65
[31] = read-out: MIC values, Trichophyton rubrum 494-62
[32] = read-out: MIC values, Trichophyton rubrum A 810
[33] = read-out: MIC values, Trichophyton verrucosum 134-66
[34] = read-out: MIC values, Trichophyton verrucosum A 2922

[C-]#[N+]C(=C1CCOCC1)S(=O)(=O)c1ccc(C)cc1 [Example 14a, a-(tetrahydropyran-4-ylidene)-a-(4-toluenesulphonyl)-methyl-isocyanide]
MIC (Trichophyton tonsurans; Trichophyton tonsurans): 0.75 µg/mL (≈ 2.7 µM)
MIC (Trichophyton equinum; [4]): 25 µg/mL (≈ 90.1 µM)
MIC (Trichophyton equinum; [5]): 6 µg/mL (≈ 21.6 µM)
MIC (Trichophyton quickeaneum; Trichophyton): 25 µg/mL (≈ 90.1 µM)
MIC ([1]; Streptococcus): 25 µg/mL (≈ 90.1 µM)
MIC [2, 6]: 25 µg/mL (≈ 90.1 µM)
MIC [2, 7]: 25 µg/mL (≈ 90.1 µM)
MIC [2, 8]: 25 µg/mL (≈ 90.1 µM)
MIC [2, 9]: 12.5 µg/mL (≈ 45.1 µM)
MIC [2, 10]: 100 µg/mL (≈ 361 µM)
MIC (Pasteurella multocida; Pasteurella multocida): 6 µg/mL (≈ 21.6 µM)
MIC (Candida albicans; [11]): 12.5 µg/mL (≈ 45.1 µM)
MIC (Candida albicans; [12]): 12.5 µg/mL (≈ 45.1 µM)
MIC (Candida albicans; [13]): 12.5 µg/mL (≈ 45.1 µM)
MIC (Candida albicans; [14]): 12.5 µg/mL (≈ 45.1 µM)
MIC (Candida albicans; [15]): 12.5 µg/mL (≈ 45.1 µM)
MIC (Candida albicans; [16]): 25 µg/mL (≈ 90.1 µM)
MIC (Candida albicans; [17]): 12.5 µg/mL (≈ 45.1 µM)
MIC (Candida albicans; [18]): 12.5 µg/mL (≈ 45.1 µM)
MIC (Candida albicans; [19]): 6 µg/mL (≈ 21.6 µM)
MIC (Candida albicans; [20]): 6 µg/mL (≈ 21.6 µM)
MIC (Candida albicans; [21]): 6 µg/mL (≈ 21.6 µM)
MIC (Candida albicans; [22]): 6 µg/mL (≈ 21.6 µM)
MIC (Candida albicans; [23]): 6 µg/mL (≈ 21.6 µM)
MIC (Candida albicans; [24]): 12.5 µg/mL (≈ 45.1 µM)
MIC (Candida albicans; [25]): 12.5 µg/mL (≈ 45.1 µM)
MIC (Candida albicans; [26]): 12.5 µg/mL (≈ 45.1 µM)
MIC (Candida albicans; [27]): 12.5 µg/mL (≈ 45.1 µM)
MIC (Candida albicans; [28]): 12.5 µg/mL (≈ 45.1 µM)
MIC (Candida albicans; [29]): 12.5 µg/mL (≈ 45.1 µM)
MIC (Trichophyton violoceum; Trichophyton): 12.5 µg/mL (≈ 45.1 µM)
MIC (Trichophyton rubrum; [30]): 3 µg/mL (≈ 10.8 µM)
MIC (Trichophyton rubrum; [31]): 25 µg/mL (≈ 90.1 µM)
MIC (Trichophyton rubrum; [32]): 12.5 µg/mL (≈ 45.1 µM)
MIC (Trichophyton verrucosum; [33]): 3 µg/mL (≈ 10.8 µM)
MIC (Trichophyton verrucosum; [34]): 3 µg/mL (≈ 10.8 µM)
MIC ([3]; Trichophyton schoenleinii): 6 µg/mL (≈ 21.6 µM)

[C-]#[N+]C(C1=CCOCC1)S(=O)(=O)c1ccc(C)cc1 (stereo not drawn) [Example 14b, α-(2,3-dihydro-6H-pyran-4-yl)-a-(4-toluenesulphonyl)-methylisocyanide]
MIC (Trichophyton tonsurans; Trichophyton tonsurans 561-50): 0.4 µg/mL (≈ 1.44 µM)
MIC (Trichophyton equinum; Trichophyton equinum 182-76, read-out: MIC values): 25 µg/mL (≈ 90.1 µM)
MIC (Trichophyton equinum; Trichophyton equinum 441-51, read-out: MIC values): 3 µg/mL (≈ 10.8 µM)
MIC (Trichophyton quickeaneum; Trichophyton quickeaneum A 2040): 25 µg/mL (≈ 90.1 µM)
MIC ([1]; Streptococcus haemolyticus A 1088): 100 µg/mL (≈ 361 µM)
MIC ([2]; Trichophyton mentagrophytus 367-68, read-out: MIC values): 25 µg/mL (≈ 90.1 µM)
MIC ([2]; Trichophyton mentagrophytus 421-67, read-out: MIC values): 25 µg/mL (≈ 90.1 µM)
MIC ([2]; Trichophyton mentagrophytus A 3252, read-out: MIC values): 25 µg/mL (≈ 90.1 µM)
MIC ([2]; Trichophyton mentagrophytus R 177, read-out: MIC values): 25 µg/mL (≈ 90.1 µM)
MIC ([2]; Trichophyton mentagrophytus R 178, read-out: MIC values): 50 µg/mL (≈ 180 µM)
MIC (Pasteurella multocida; Pasteurella multocida A 723): 6 µg/mL (≈ 21.6 µM)
MIC (Candida albicans; Candida albicans A 7, read-out: MIC values): 6 µg/mL (≈ 21.6 µM)
MIC (Candida albicans; Candida albicans A 3140, read-out: MIC values): 6 µg/mL (≈ 21.6 µM)
MIC (Candida albicans; Candida albicans A 3141, read-out: MIC values): 12.5 µg/mL (≈ 45.1 µM)
MIC (Candida albicans; Candida albicans A 3142, read-out: MIC values): 6 µg/mL (≈ 21.6 µM)
MIC (Candida albicans; Candida albicans A 3143, read-out: MIC values): 6 µg/mL (≈ 21.6 µM)
MIC (Candida albicans; Candida albicans A 3144, read-out: MIC values): 25 µg/mL (≈ 90.1 µM)
MIC (Candida albicans; Candida albicans A 3145, read-out: MIC values): 12.5 µg/mL (≈ 45.1 µM)
MIC (Candida albicans; Candida albicans A 3165, read-out: MIC values): 6 µg/mL (≈ 21.6 µM)
MIC (Candida albicans; Candida albicans A 3166, read-out: MIC values): 6 µg/mL (≈ 21.6 µM)
MIC (Candida albicans; Candida albicans A 3167, read-out: MIC values): 6 µg/mL (≈ 21.6 µM)
MIC (Candida albicans; Candida albicans A 3168, read-out: MIC values): 6 µg/mL (≈ 21.6 µM)
MIC (Candida albicans; Candida albicans A 3169, read-out: MIC values): 6 µg/mL (≈ 21.6 µM)
MIC (Candida albicans; Candida albicans A 3171, read-out: MIC values): 6 µg/mL (≈ 21.6 µM)
MIC (Candida albicans; Candida albicans A 3184, read-out: MIC values): 6 µg/mL (≈ 21.6 µM)
MIC (Candida albicans; Candida albicans A 3190, read-out: MIC values): 12.5 µg/mL (≈ 45.1 µM)
MIC (Candida albicans; Candida albicans A 3191, read-out: MIC values): 25 µg/mL (≈ 90.1 µM)
MIC (Candida albicans; Candida albicans A 3192, read-out: MIC values): 6 µg/mL (≈ 21.6 µM)
MIC (Candida albicans; Candida albicans A 3194, read-out: MIC values): 12.5 µg/mL (≈ 45.1 µM)
MIC (Candida albicans; Candida albicans A 3196, read-out: MIC values): 25 µg/mL (≈ 90.1 µM)
MIC (Trichophyton violoceum; Trichophyton violoceum 442-62): 12.5 µg/mL (≈ 45.1 µM)
MIC (Trichophyton rubrum; Trichophyton rubrum 218-65, read-out: MIC values): 3 µg/mL (≈ 10.8 µM)
MIC (Trichophyton rubrum; Trichophyton rubrum 494-62, read-out: MIC values): 25 µg/mL (≈ 90.1 µM)
MIC (Trichophyton rubrum; Trichophyton rubrum A 810, read-out: MIC values): 12.5 µg/mL (≈ 45.1 µM)
MIC (Trichophyton verrucosum; Trichophyton verrucosum 134-66, read-out: MIC values): 3 µg/mL (≈ 10.8 µM)
MIC (Trichophyton verrucosum; Trichophyton verrucosum A 2922, read-out: MIC values): 1.5 µg/mL (≈ 5.41 µM)
MIC ([3]; Trichophyton schoenleinii 435-63): 6 µg/mL (≈ 21.6 µM)

[C-]#[N+]C(=C1CCSCC1)S(=O)(=O)c1ccc(C)cc1 [Example 16a, a-(thian-4-ylidene)-a-(4-toluenesulphonyl)-methylisocyanide]
MIC (Trichophyton tonsurans; Trichophyton tonsurans): 0.4 µg/mL (≈ 1.36 µM)
MIC (Trichophyton equinum; [4]): 25 µg/mL (≈ 85.2 µM)
MIC (Trichophyton equinum; [5]): 3 µg/mL (≈ 10.2 µM)
MIC (Trichophyton quickeaneum; Trichophyton): 12.5 µg/mL (≈ 42.6 µM)
MIC ([1]; Streptococcus): 25 µg/mL (≈ 85.2 µM)
MIC [2, 6]: 25 µg/mL (≈ 85.2 µM)
MIC [2, 7]: 50 µg/mL (≈ 170 µM)
MIC [2, 8]: 25 µg/mL (≈ 85.2 µM)
MIC [2, 9]: 12.5 µg/mL (≈ 42.6 µM)
MIC [2, 10]: 100 µg/mL (≈ 341 µM)
MIC (Pasteurella multocida; Pasteurella multocida): 6 µg/mL (≈ 20.4 µM)
MIC (Candida albicans; [11]): 6 µg/mL (≈ 20.4 µM)
MIC (Candida albicans; [12]): 6 µg/mL (≈ 20.4 µM)
MIC (Candida albicans; [13]): 6 µg/mL (≈ 20.4 µM)
MIC (Candida albicans; [14]): 6 µg/mL (≈ 20.4 µM)
MIC (Candida albicans; [15]): 12.5 µg/mL (≈ 42.6 µM)
MIC (Candida albicans; [16]): 12.5 µg/mL (≈ 42.6 µM)
MIC (Candida albicans; [17]): 12.5 µg/mL (≈ 42.6 µM)
MIC (Candida albicans; [18]): 6 µg/mL (≈ 20.4 µM)
MIC (Candida albicans; [19]): 3 µg/mL (≈ 10.2 µM)
MIC (Candida albicans; [20]): 3 µg/mL (≈ 10.2 µM)
MIC (Candida albicans; [21]): 3 µg/mL (≈ 10.2 µM)
MIC (Candida albicans; [22]): 12.5 µg/mL (≈ 42.6 µM)
MIC (Candida albicans; [23]): 6 µg/mL (≈ 20.4 µM)
MIC (Candida albicans; [24]): 12.5 µg/mL (≈ 42.6 µM)
MIC (Candida albicans; [25]): 25 µg/mL (≈ 85.2 µM)
MIC (Candida albicans; [26]): 25 µg/mL (≈ 85.2 µM)
MIC (Candida albicans; [27]): 25 µg/mL (≈ 85.2 µM)
MIC (Candida albicans; [28]): 25 µg/mL (≈ 85.2 µM)
MIC (Candida albicans; [29]): 25 µg/mL (≈ 85.2 µM)
MIC (Trichophyton violoceum; Trichophyton): 6 µg/mL (≈ 20.4 µM)
MIC (Trichophyton rubrum; [30]): 6 µg/mL (≈ 20.4 µM)
MIC (Trichophyton rubrum; [31]): 25 µg/mL (≈ 85.2 µM)
MIC (Trichophyton rubrum; [32]): 3 µg/mL (≈ 10.2 µM)
MIC (Trichophyton verrucosum; [33]): 3 µg/mL (≈ 10.2 µM)
MIC (Trichophyton verrucosum; [34]): 1.5 µg/mL (≈ 5.11 µM)
MIC ([3]; Trichophyton schoenleinii): 6 µg/mL (≈ 20.4 µM)
